In experiment [1] the target is T1, DNA polymerase beta (Homo sapiens, UniProt P06746). Description: Inhibition of DNA polymerase beta.
For experiment [2], the target named is T2, Human immunodeficiency virus type 1 reverse transcriptase (Human immunodeficiency virus 1, UniProt Q72547). Description: Inhibition of DNA dependent DNA polymerase activity of HIV1 recombinant reverse transcriptase p66/p51.
For experiment [3], the target named is T2, Human immunodeficiency virus type 1 reverse transcriptase. Briefly: Inhibition of RNA dependent DNA polymerase activity of HIV1 recombinant reverse transcriptase p66/p51.
The target of experiment [4] is Human immunodeficiency virus type 1 reverse transcriptase (Human immunodeficiency virus 1) (UniProt Q72547). Description: Inhibition of DNA dependent DNA polymerase activity of HIV1 recombinant reverse transcriptase p66/p51 at 495 uM.
Experiment [5] concerns Avian myeloblastosis virus. Briefly: Inhibition of Avian myeloblastosis virus reverse transcriptase at 495 uM.
Experiment [6] in a line: Inhibition of RNA polymerase at 495 uM.
The next experiment has as its system Escherichia coli. Briefly: Inhibition of Escherichia coli RNase H at 495 uM.
Experiment [7] has as its system Human immunodeficiency virus 2. Description: Inhibition of HIV2 reverse transcriptase p68/p54 expressed in Escherichia coli at 495 uM.
For experiment [8], the system named is Avian myeloblastosis virus. Briefly: Inhibition of Avian myeloblastosis virus reverse transcriptase.
Experiment [9] deals with T3, DNA polymerase alpha catalytic subunit (Homo sapiens) (UniProt P09884).
T3 sequence (whole entry): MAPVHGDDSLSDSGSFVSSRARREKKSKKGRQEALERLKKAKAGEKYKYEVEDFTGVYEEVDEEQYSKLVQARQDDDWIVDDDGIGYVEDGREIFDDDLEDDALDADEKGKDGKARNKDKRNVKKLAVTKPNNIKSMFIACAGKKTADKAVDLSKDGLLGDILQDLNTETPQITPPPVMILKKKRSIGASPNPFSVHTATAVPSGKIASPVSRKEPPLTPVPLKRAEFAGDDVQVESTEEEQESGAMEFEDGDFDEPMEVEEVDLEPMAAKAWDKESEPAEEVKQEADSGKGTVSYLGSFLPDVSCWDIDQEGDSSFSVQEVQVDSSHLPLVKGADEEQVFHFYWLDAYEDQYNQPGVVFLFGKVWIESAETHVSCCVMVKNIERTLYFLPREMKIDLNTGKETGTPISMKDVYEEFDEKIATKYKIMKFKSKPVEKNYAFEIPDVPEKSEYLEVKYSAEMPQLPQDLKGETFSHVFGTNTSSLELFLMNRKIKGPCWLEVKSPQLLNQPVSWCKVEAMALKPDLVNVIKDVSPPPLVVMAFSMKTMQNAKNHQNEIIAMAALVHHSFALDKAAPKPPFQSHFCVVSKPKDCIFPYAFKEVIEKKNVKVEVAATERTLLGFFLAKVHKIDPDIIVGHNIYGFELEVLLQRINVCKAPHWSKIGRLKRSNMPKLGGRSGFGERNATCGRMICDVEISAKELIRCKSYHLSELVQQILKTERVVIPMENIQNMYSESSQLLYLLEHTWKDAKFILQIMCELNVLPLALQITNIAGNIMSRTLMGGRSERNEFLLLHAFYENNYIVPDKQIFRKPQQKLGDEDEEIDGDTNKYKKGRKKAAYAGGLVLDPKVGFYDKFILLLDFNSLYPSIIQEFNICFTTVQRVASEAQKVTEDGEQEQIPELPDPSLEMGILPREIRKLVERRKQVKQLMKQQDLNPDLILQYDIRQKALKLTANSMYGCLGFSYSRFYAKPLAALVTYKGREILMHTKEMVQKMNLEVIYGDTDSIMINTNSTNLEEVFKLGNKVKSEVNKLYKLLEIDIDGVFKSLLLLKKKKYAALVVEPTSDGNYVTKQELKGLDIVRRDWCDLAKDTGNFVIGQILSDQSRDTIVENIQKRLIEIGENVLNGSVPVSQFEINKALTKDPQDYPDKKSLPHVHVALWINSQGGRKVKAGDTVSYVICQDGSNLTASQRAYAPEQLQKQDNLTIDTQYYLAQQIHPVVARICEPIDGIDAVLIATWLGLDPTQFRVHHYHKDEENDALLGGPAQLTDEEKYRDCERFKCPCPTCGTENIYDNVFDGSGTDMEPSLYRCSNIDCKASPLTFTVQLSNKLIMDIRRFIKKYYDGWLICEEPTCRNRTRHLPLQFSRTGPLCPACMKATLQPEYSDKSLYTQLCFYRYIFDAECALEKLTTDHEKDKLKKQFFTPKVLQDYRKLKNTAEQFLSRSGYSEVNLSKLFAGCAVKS
Briefly: Inhibition of DNA polymerase alpha at 495 uM.

In experiment [10] the target is T1, DNA polymerase beta. Description: Inhibition of DNA polymerase beta at 495 uM.
A short description of experiment [11]: Inhibition of Escherichia coli RNase H.
The target of experiment [12] is T3, DNA polymerase alpha catalytic subunit (Homo sapiens). Briefly: (§1) Inhibition of DNA polymerase alpha.
For experiment [13], the system named is Human immunodeficiency virus 1. Briefly: Inhibition of TIBO-resistant HIV1 reverse transcriptase p66/p51 Tyr181 mutant expressed in Escherichia coli.
Experiment [14] has as its system Human immunodeficiency virus 2. Description: Inhibition of HIV2 reverse transcriptase p68/p54 expressed in Escherichia coli.
Experiment [15] in a line: Inhibition of RNA polymerase.
Experiment [16] concerns the target Human immunodeficiency virus type 1 reverse transcriptase (Human immunodeficiency virus 1) (UniProt Q72547). Description: Inhibition of RNA dependent DNA polymerase activity of HIV1 recombinant reverse transcriptase p66/p51 at 495 uM.
Experiment [17] deals with Human immunodeficiency virus 1. Briefly: Inhibition of TIBO-resistant HIV1 reverse transcriptase p66/p51 Tyr181 mutant expressed in Escherichia coli at 495 uM.
For experiment [18], the target named is T4, DNA polymerase alpha catalytic subunit (Homo sapiens, UniProt P09884).
T4 sequence (P09884 whole entry): T3 sequence (whole entry)
The description is as §1.

The source made the active and inactive calls. No cut-off for these calls is given here. Where only a bound is given, the exact number is not on record here.

We go through 4 molecules from ChEMBL document CHEMBL1158280, “Specific inhibition of human immunodeficiency virus type 1 reverse transcriptase mediated by soulattrolide, a coumarin isolated from the latex of calophyllum teysmannii” (J Nat Prod, 1996).

As to `CCCc1cc(=O)oc2c3c(c4c(c12)OC(C)(C)C=C4)O[C@H](C)[C@@H](C)[C@@H]3O` [CALANOLIDE A], the IC50 (usually the concentration needed to halve the response being measured) came to 205 µM against DNA polymerase beta [1] and 0.32 µM in experiment [2].

With `CCCc1cc(=O)oc2c3c(c4c(c12)OC(C)(C)C=C4)O[C@@H](C)[C@H](C)[C@@H]3O` [COSTATOLIDE], the IC50 came out at 1.4 µM in experiment [3] and 0.29 µM in experiment [2].

Turning to `C[C@H]1[C@H](C)Oc2c3c(c4c(-c5ccccc5)cc(=O)oc4c2[C@H]1O)OC(C)(C)C=C3` [SOULATTROLIDE], the IC50 in [3] is 0.73 µM; on DNA polymerase beta [1] it was over 495 µM; in experiment [2], 0.34 µM; in experiment [11] it was 69.5 µM. The inhibition (as a rule, the share of the control response that was lost under treatment) was 87.2% in experiment [4]; 20.2% in [5]; 29.7% in [6]; 86.5% with Escherichia coli; 0.7% in experiment [7]; 28.1% in experiment [9]. For the same molecule, the inhibition worked out at 49.6% against DNA polymerase beta [10], 96.2% in [16] and 31.5% in experiment [17]. Further, the outcome in experiment [8], in experiment [12], in experiment [13], in experiment [14] and in experiment [15] was inactive.

Consider `Cc1cn([C@H]2C[C@H](N=[N+]=[N-])[C@@H](CO[P@](=O)(O)O[P@](=O)(O)OP(=O)(O)O)O2)c(=O)[nH]c1=O` [ZIDOVUDINE TRIPHOSPHATE], for which the IC50 was found to be 16 µM against DNA polymerase beta [1], 0.051 µM in experiment [2] and 11 µM in experiment [18].
